Measured values reported in PMC5557574 (Critical Care, 2017).
Where two headings read alike, the source gives them in different places. Positions of bridges follow the written chain, without caps; N, C: chain ends. Non-standard residues stand in square brackets, D forms with d. Residues, ends and D or L forms follow the SMILES beside them. Orn(iPr) = CC(C)NCCC[C@H](N)C(=O)O; Aad = N[C@@H](CCCC(=O)O)C(=O)O

How the values were obtained:
[1] = cited from earlier work
[2] = parameters: method as in Ferring Pharmaceuticals, unpublished data; details: healthy subjects; ref Ferring Pharmaceuticals, unpublished data; cited from earlier work
[3] = Pharmacokinetics in septic shock patients, two-compartment population pharmacokinetic model; type: in vivo, human; details: for Initial elimination half-life / Time to steady state / clearance / Vd / half-life: mean (SD), SD; for clearance / Vd / half-life: human, in vivo, intravenous; for clearance: read-out: Clearance (total systemic) (converted); for Vd: read-out: Steady state volume; for half-life: read-out: Terminal elimination half-life (converted)
Procedure: Because the study drug infusion was administered according to need, the pharmacokinetic parameters steady-state concentration, total systemic clearance, distribution volume at steady state, and half-life were calculated by modeling using a two-compartment population pharmacokinetic model with random subject effects on clearance and distribution volume using WinNonlin®Pro (Pharsight Corp., Cary, NC, USA). Actual blood sampling time points were used for the calculations.
Data are generated by modelling the concentration data available from all subjects. Mean (SD)

[4] = system: healthy subjects; parameters: method as in Ferring Pharmaceuticals A/S, unpublished data; details: 30 healthy subjects, infusion rates up to 3.0 ng/kg/minute for 6 h; ref Ferring Pharmaceuticals A/S, unpublished data; cited from earlier work
[5] = system: patients in early septic shock; test: Safety: treatment-emergent adverse events in the phase IIa trial; type: in vivo, human
Procedure: Secondary endpoints included pharmacodynamics, pharmacokinetics, safety (vital signs, central venous pressure, central venous oxygen saturation, electrocardiographic and cardiac function, respiratory function, clinical chemistry, hematology, hemostasis, and urinalysis), organ dysfunction, an indirect measure of vascular leakage (i.e., fluid balance), and morbidity. Treatment-emergent adverse events (occurrence from start of study drug to 48 h after infusion was stopped) were collated and evaluated. Morbidity and organ dysfunction were evaluated by time course of Sequential Organ Failure Assessment (SOFA) scores; days alive and free of organ dysfunction (using SOFA); proportion of patients off all vasopressors; days alive and out of intensive care unit (ICU); days alive and free of vasopressors; corticosteroids for sepsis treatment, dialysis, or mechanical ventilation at days 7, 14, and 28; ICU and hospital (up to day 28) lengths of stay; and plasma C-reactive protein (CRP), tumor necrosis factor (TNF)-α, interleukin (IL)-6, IL-10, and IL-1ra levels.

[6] = system: patients; details: 30 patients, infusion rates of 3.75 ng/kg/minute and higher; ref Ferring Pharmaceuticals A/S, unpublished data; cited from earlier work
[7] = Selepressin 2.5 ng/kg/minute (n = 19), possibly or probably related
[8] = Selepressin 3.75 ng/kg/minute (n = 2), possibly or probably related

Compound: terlipressin [reference compound]
- Half-life (qualitative) ([1]; in vivo): long half-life

Compound: CC[C@H](C)[C@@H]1NC(=O)[C@H](Cc2ccccc2)NC(=O)[C@@H](N)CSSC[C@@H](C(=O)N2CCC[C@H]2C(=O)N[C@@H](CCCNC(C)C)C(=O)NCC(N)=O)NC(=O)[C@H](CC(N)=O)NC(=O)[C@H](CCCC(N)=O)NC1=O [selepressin] (H-CFI[Aad](NH2)NCP[Orn(iPr)]G-NH2; disulfide 1-6)
- Terminal half-life [2]: 1.5 h
- Half-life (qualitative, compared with vasopressin and terlipressin) [1]: intermediate
- Initial distribution/elimination phase half-life [3]: approximately 10 minutes
- Initial elimination half-life ([3]; 1.25 ng/kg.min, N=10, modelled): 0.18 (0.09) h
- Time to steady state ([3]; 1.25 ng/kg.min, N=10, modelled): 7.6 (2.8) h
- Initial elimination half-life ([3]; 2.5 ng/kg.min, N=17, modelled): 0.17 (0.06) h
- Time to steady state ([3]; 2.5 ng/kg.min, N=17, modelled): 7.0 (2.3) h
- Terminal half-life ([3]; both dose groups): 2.5 h
- Time to steady-state concentration ([3]; both infusion rates (1.25 and 2.5)): approximately 7 h
- clearance ([3]; 1.25 ng/kg.min, N=10, modelled): 167 mL/min
- Vd ([3]; 1.25 ng/kg.min, N=10, modelled): 25.5 L
- half-life ([3]; 1.25 ng/kg.min, N=10, modelled): 2.5 h
- clearance ([3]; 2.5 ng/kg.min, N=17, modelled): 218 mL/min
- Vd ([3]; 2.5 ng/kg.min, N=17, modelled): 31.2 L
- half-life ([3]; 2.5 ng/kg.min, N=17, modelled): 2.7 h
- Safety and tolerability [4]: safe and well tolerated
- Any severe TEAE: E (events) ([5]; 1.25 ng/kg.min N=10): 8
- Any severe TEAE: N (%) ([5]; 1.25 ng/kg.min N=10): 3 (30)
- Severe TEAE Acute respiratory distress syndrome: E (events) ([5]; 1.25 ng/kg.min N=10): 1
- Severe TEAE Acute respiratory distress syndrome: N (%) ([5]; 1.25 ng/kg.min N=10): 1 (10)
- Severe TEAE Ascites: E (events) ([5]; 1.25 ng/kg.min N=10): 1
- Severe TEAE Ascites: N (%) ([5]; 1.25 ng/kg.min N=10): 1 (10)
- Severe TEAE Cerebral hemorrhage: E (events) ([5]; 1.25 ng/kg.min N=10): 1
- Severe TEAE Cerebral hemorrhage: N (%) ([5]; 1.25 ng/kg.min N=10): 1 (10)
- Severe TEAE Disseminated intravascular coagulation: E (events) ([5]; 1.25 ng/kg.min N=10): 1
- Severe TEAE Disseminated intravascular coagulation: N (%) ([5]; 1.25 ng/kg.min N=10): 1 (10)
- Severe TEAE Hepatic failure: E (events) ([5]; 1.25 ng/kg.min N=10): 1
- Severe TEAE Hepatic failure: N (%) ([5]; 1.25 ng/kg.min N=10): 1 (10)
- Severe TEAE Hyperkalemia: E (events) ([5]; 1.25 ng/kg.min N=10): 1
- Severe TEAE Hyperkalemia: N (%) ([5]; 1.25 ng/kg.min N=10): 1 (10)
- Severe TEAE Mechanical ventilation complication: E (events) ([5]; 1.25 ng/kg.min N=10): 1
- Severe TEAE Mechanical ventilation complication: N (%) ([5]; 1.25 ng/kg.min N=10): 1 (10)
- Severe TEAE Oliguria: E (events) ([5]; 1.25 ng/kg.min N=10): 1
- Severe TEAE Oliguria: N (%) ([5]; 1.25 ng/kg.min N=10): 1 (10)
- Any severe TEAE: E (events) ([5]; 2.5 ng/kg.min N=19): 6
- Any severe TEAE: N (%) ([5]; 2.5 ng/kg.min N=19): 4 (21)
- Severe TEAE Myocarditis: E (events) ([5]; 2.5 ng/kg.min N=19): 1
- Severe TEAE Myocarditis: N (%) ([5]; 2.5 ng/kg.min N=19): 1 (5)
- Severe TEAE Peripheral ischemia: E (events) ([5]; 2.5 ng/kg.min N=19): 1
- Severe TEAE Peripheral ischemia: N (%) ([5]; 2.5 ng/kg.min N=19): 1 (5)
- Severe TEAE Pneumothorax: E (events) ([5]; 2.5 ng/kg.min N=19): 1
- Severe TEAE Pneumothorax: N (%) ([5]; 2.5 ng/kg.min N=19): 1 (5)
- Severe TEAE Respiratory distress: E (events) ([5]; 2.5 ng/kg.min N=19): 2
- Severe TEAE Respiratory distress: N (%) ([5]; 2.5 ng/kg.min N=19): 2 (11)
- Severe TEAE Urinary bladder hemorrhage: E (events) ([5]; 2.5 ng/kg.min N=19): 1
- Severe TEAE Urinary bladder hemorrhage: N (%) ([5]; 2.5 ng/kg.min N=19): 1 (5)
- Adverse drug reactions judged as serious ([5]; 2.5 ng/kg/minute group, one patient): myocarditis and peripheral ischemia
- Any severe TEAE: E (events) ([5]; 3.75 ng/kg.min N=2): 2
- Any severe TEAE: N (%) ([5]; 3.75 ng/kg.min N=2): 2 (100)
- Severe TEAE Cardio-respiratory arrest: E (events) ([5]; 3.75 ng/kg.min N=2): 1
- Severe TEAE Cardio-respiratory arrest: N (%) ([5]; 3.75 ng/kg.min N=2): 1 (50)
- Severe TEAE Myocardial ischemia: E (events) ([5]; 3.75 ng/kg.min N=2): 1
- Severe TEAE Myocardial ischemia: N (%) ([5]; 3.75 ng/kg.min N=2): 1 (50)
- Adverse drug reactions judged as serious ([5]; 3.75 ng/kg/minute group): myocardial ischemia
- Cyanosis, treatment-related adverse drug reaction: No. of subjects (%) [5, 7]: 1 (5)
- Cyanosis, treatment-related adverse drug reaction: events [5, 7]: 1
- Hypertension, treatment-related adverse drug reaction: No. of subjects (%) [5, 7]: 2 (11)
- Hypertension, treatment-related adverse drug reaction: events [5, 7]: 2
- Myocarditis, treatment-related adverse drug reaction: No. of subjects (%) [5, 7]: 1 (5)
- Myocarditis, treatment-related adverse drug reaction: events [5, 7]: 1
- Peripheral ischemia, treatment-related adverse drug reaction: No. of subjects (%) [5, 7]: 1 (5)
- Peripheral ischemia, treatment-related adverse drug reaction: events [5, 7]: 1
- Myocardial ischemia, treatment-related adverse drug reaction: No. of subjects (%) [5, 8]: 1 (50)
- Myocardial ischemia, treatment-related adverse drug reaction: events [5, 8]: 1
- Tolerability ([5]; selepressin 2.5 ng/kg/minute, septic shock patients): well tolerated
- Tolerability (treatment-emergent adverse events vs placebo) ([5]; selepressin dose groups, septic shock patients): well tolerated
- Deaths related to ischemic event(s) attributable to selepressin ([5]; septic shock patients, all dose groups): no deaths
- Safety [6]: did not raise any safety concerns
